Test results published in PubChem BioAssay AID248 (DTP/NCI, 2004).
Values joined by “and” are separate entries in the source; they are usually repeats but may differ in a detail not shown here. Equal entries are not always repeated. Inconclusive results and toxic doses are left out. Cut-off read from the data, not from the text of the source: active = T/C of 150% or more; inactive = T/C below 125%.

System: L1210 leukemia ip in BDF1 mice, survival T/C
Assay: NCI In Vivo Anticancer Drug Screen. Data for tumor model L1210 Leukemia (intraperitoneal) in B6D2F1 (BDF1) mice
Settings: endpoint: mean survival time, higher = longer survival
How it was run: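 Antitumor effect is assessed in tumor-bearing animals. Survival in the compound arm is compared with a vehicle-dosed control arm and expressed as their quotient.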

[1] = dose: 100.0 mg/kg/injection, schedule: Q01DX001 (ip), vehicle: saline with Tween-80
[2] = dose: 200.0 mg/kg/injection, schedule: Q01DX001 (ip), vehicle: saline with Tween-80
[3] = dose: 400.0 mg/kg/injection, schedule: Q01DX001 (ip), vehicle: saline with Tween-80
[4] = dose: 50.0 mg/kg/injection, schedule: Q01DX001 (ip), vehicle: carboxymethylcellulose (CMC)
[5] = dose: 100.0 mg/kg/injection, schedule: Q01DX001 (ip), vehicle: carboxymethylcellulose (CMC)
[6] = dose: 200.0 mg/kg/injection, schedule: Q01DX001 (ip), vehicle: carboxymethylcellulose (CMC)
[7] = dose: 400.0 mg/kg/injection, schedule: Q01DX001 (ip), vehicle: carboxymethylcellulose (CMC)
[8] = dose: 100.0 mg/kg/injection, schedule: Q01DX001 (ip), vehicle: saline
[9] = dose: 200.0 mg/kg/injection, schedule: Q01DX001 (ip), vehicle: saline
[10] = dose: 400.0 mg/kg/injection, schedule: Q01DX001 (ip), vehicle: saline
[11] = dose: 100.0 mg/kg/injection, schedule: Q04DX002 (ip), vehicle: Klucel (hydroxypropylcellulose) (HPC)
[12] = dose: 200.0 mg/kg/injection, schedule: Q04DX002 (ip), vehicle: Klucel (hydroxypropylcellulose) (HPC)
[13] = dose: 400.0 mg/kg/injection, schedule: Q04DX002 (ip), vehicle: Klucel (hydroxypropylcellulose) (HPC)
[14] = dose: 25.0 mg/kg/injection, schedule: Q01DX009 (ip), vehicle: Klucel (hydroxypropylcellulose) (HPC)
[15] = dose: 50.0 mg/kg/injection, schedule: Q01DX009 (ip), vehicle: Klucel (hydroxypropylcellulose) (HPC)
[16] = dose: 100.0 mg/kg/injection, schedule: Q04DX003 (ip), vehicle: Klucel (hydroxypropylcellulose) (HPC)
[17] = dose: 200.0 mg/kg/injection, schedule: Q04DX003 (ip), vehicle: Klucel (hydroxypropylcellulose) (HPC)
[18] = dose: 400.0 mg/kg/injection, schedule: Q04DX003 (ip), vehicle: Klucel (hydroxypropylcellulose) (HPC)
[19] = dose: 100.0 mg/kg/injection, schedule: Q01DX009 (ip), vehicle: Klucel (hydroxypropylcellulose) (HPC)
[20] = dose: 200.0 mg/kg/injection, schedule: Q01DX009 (ip), vehicle: Klucel (hydroxypropylcellulose) (HPC)
[21] = dose: 400.0 mg/kg/injection, schedule: Q01DX009 (ip), vehicle: Klucel (hydroxypropylcellulose) (HPC)
[22] = dose: 100.0 mg/kg/injection, schedule: Q01DX001 (ip), vehicle: Klucel (hydroxypropylcellulose) (HPC)
[23] = dose: 200.0 mg/kg/injection, schedule: Q01DX001 (ip), vehicle: Klucel (hydroxypropylcellulose) (HPC)
[24] = dose: 400.0 mg/kg/injection, schedule: Q01DX001 (ip), vehicle: Klucel (hydroxypropylcellulose) (HPC)

Measured: T/C

Nc1ncnc(N)c1NC(=O)c1ccc(OCCc2ccccc2)c(Cl)c1
inactive: [1] 106 % of control | [2] 96 % of control | [3] 102 % of control

COc1cccc2cc[nH]c12
inactive: [4] 105 % of control | [5] 100 % of control | [6] 112 % of control | [7] 100 % of control

COc1ccc(-c2nc(-c3cccc(O)c3)[nH]c2-c2ccc(OC)cc2)cc1
inactive: dose: 100.0 mg/kg/injection, schedule: Q01DX009 (ip), vehicle: saline with Tween-80 93 % of control | dose: 200.0 mg/kg/injection, schedule: Q01DX009 (ip), vehicle: saline with Tween-80 98 % of control | dose: 400.0 mg/kg/injection, schedule: Q01DX009 (ip), vehicle: saline with Tween-80 105 % of control

CCOC(=O)Nc1ccc2c(c1)/C(=N/O)c1ccccc1-2
inactive: [5] 94 % of control | [6] 91 % of control | [7] 91 % of control

CC(C)=CCC(C)c1ccncc1 (configuration not stated)
inactive: [8] 102 % of control | [9] 97 % of control | [10] 102 % of control

CCCS(=O)(=O)N1CCCCC1
inactive: [11] 102 % of control | [12] 94 % of control | [13] 102 % of control

Cc1nnc([N+](=O)[O-])s1
inactive: dose: 12.5 mg/kg/injection, schedule: Q01DX009 (ip), vehicle: Klucel (hydroxypropylcellulose) (HPC) 107 % of control | [14] 112 % of control | [15] 102 % of control

Cc1ccc(C(=O)O)cc1[N+](=O)[O-]
inactive: [16] 95 % of control | [17] 92 % of control | [18] 103 % of control

OC(/C=C/c1ccccc1)(c1ccccc1)c1ccccc1
inactive: [16] 94 % of control | [17] 93 % of control | [18] 96 % of control

Cc1ccc(C)n1CCn1c(C)ccc1C
inactive: [19] 91 % of control | [11] 88 % of control | [20] 94 % of control | [12] 93 % of control | [21] 91 % of control | [13] 96 % of control

CCOP(=O)(OCC)N1C(C)C1c1ccccc1 (configuration not stated)
inactive: dose: 25.0 mg/kg/injection, schedule: Q04DX003 (sc), vehicle: carboxymethylcellulose (CMC) 100 % of control | dose: 50.0 mg/kg/injection, schedule: Q04DX003 (sc), vehicle: carboxymethylcellulose (CMC) 104 % of control | dose: 100.0 mg/kg/injection, schedule: Q04DX003 (sc), vehicle: carboxymethylcellulose (CMC) 112 % of control

COC(=O)NC(=S)Nc1ccccc1NC(=S)NC(=O)OC
inactive: [14] 94 % of control | [15] 102 % of control | [19] 105 % of control | [16] 96 % of control | [17] 99 % of control | [18] 87 % of control

CC(C)OC(=O)c1cc(C(=O)OC(C)C)cc(S(N)(=O)=O)c1
inactive: dose: 100.0 mg/kg/injection, schedule: Q01DX001 (ip), vehicle: other 106 % of control | dose: 200.0 mg/kg/injection, schedule: Q01DX001 (ip), vehicle: other 98 % of control | dose: 400.0 mg/kg/injection, schedule: Q01DX001 (ip), vehicle: other 95 % of control

O=[N+]([O-])c1cc([N+](=O)[O-])c(/C=C/c2cccc(OCc3ccccc3)c2)cc1/C=C/c1cccc(OCc2ccccc2)c1
inactive: dose: 75.0 mg/kg/injection, schedule: Q01DX001 (ip), vehicle: saline 91 % of control | dose: 150.0 mg/kg/injection, schedule: Q01DX001 (ip), vehicle: saline 89 % of control | dose: 300.0 mg/kg/injection, schedule: Q01DX001 (ip), vehicle: saline 91 % of control

NC(CNC(=O)Oc1ccccc1)C(=O)O (configuration not stated)
inactive: [1] 95 % of control | [2] 103 % of control | [3] 92 % of control

CC(C)(SCCc1ccccn1)C(N)C(=O)O (configuration not stated)
inactive: [22] 102 % of control | [23] 107 % of control | [24] 96 % of control

C[CH2][Pb]([CH2]C)([CH2]C)[O][As](=O)(O)c1ccc(N)cc1
inactive: dose: 0.75 mg/kg/injection, schedule: Q01DX009 (ip), vehicle: Klucel (hydroxypropylcellulose) (HPC) 98 % of control | dose: 1.5 mg/kg/injection, schedule: Q01DX009 (ip), vehicle: Klucel (hydroxypropylcellulose) (HPC) 102 % of control | dose: 1.5 mg/kg/injection, schedule: Q04DX003 (ip), vehicle: Klucel (hydroxypropylcellulose) (HPC) 96 % of control | dose: 3.0 mg/kg/injection, schedule: Q01DX009 (ip), vehicle: Klucel (hydroxypropylcellulose) (HPC) 96 % of control and 102 % of control | dose: 3.0 mg/kg/injection, schedule: Q04DX003 (ip), vehicle: Klucel (hydroxypropylcellulose) (HPC) 100 % of control | dose: 6.0 mg/kg/injection, schedule: Q04DX003 (ip), vehicle: Klucel (hydroxypropylcellulose) (HPC) 98 % of control

CCOC(=O)c1ccc2c(c1)C(=O)c1cc([N+](=O)[O-])ccc1-2
inactive: [5] 96 % of control | [6] 96 % of control | [7] 96 % of control

Cc1ccc(-c2oc(-c3ccc(C)cc3)c3cc(C)c(C)cc23)cc1
inactive: [22] 87 % of control | [23] 90 % of control | [24] 88 % of control

CCCCCCCCCCCCCCCC(=O)NCCO
inactive: dose: 50.0 mg/kg/injection, schedule: Q01DX009 (ip), vehicle: saline sonified 96 % of control | dose: 50.0 mg/kg/injection, schedule: Q04DX003 (ip), vehicle: Klucel (hydroxypropylcellulose) (HPC) 91 % of control | dose: 100.0 mg/kg/injection, schedule: Q01DX009 (ip), vehicle: saline sonified 91 % of control | [16] 106 % of control | dose: 200.0 mg/kg/injection, schedule: Q01DX009 (ip), vehicle: saline sonified 96 % of control | [17] 96 % of control and 89 % of control

O=C(O)c1c(Cl)c(Cl)c(Cl)c(Cl)c1C(=O)O.O=C(O)c1c(Cl)c(Cl)c(Cl)c(Cl)c1C(=O)O.[Pt]
inactive: dose: 100.0 mg/kg/injection, schedule: Q04DX003 (ip), vehicle: saline sonified 105 % of control

CC(=O)OCC(OC(C)=O)C(OC(C)=O)C(COC(C)=O)OC(C)=O (configuration not stated)
inactive: dose: 25.6 mg/kg/injection, schedule: Q04DX002 (ip), vehicle: saline with Tween-80 108 % of control | dose: 64.0 mg/kg/injection, schedule: Q04DX002 (ip), vehicle: saline with Tween-80 104 % of control | dose: 160.0 mg/kg/injection, schedule: Q04DX002 (ip), vehicle: saline with Tween-80 93 % of control | dose: 400.0 mg/kg/injection, schedule: Q04DX002 (ip), vehicle: saline with Tween-80 93 % of control

Cc1ccc(C(CO)(CO)OC(CO)(CO)c2ccc(C)c(C)c2)cc1C
inactive: dose: 50.0 mg/kg/injection, schedule: Q01DX001 (ip), vehicle: saline 105 % of control | [8] 97 % of control | [9] 105 % of control | [10] 105 % of control

O=[N+]([O-])c1ccc2cccnc2c1
inactive: dose: 75.0 mg/kg/injection, schedule: Q01DX001 (ip), vehicle: carboxymethylcellulose (CMC) 106 % of control | dose: 150.0 mg/kg/injection, schedule: Q01DX001 (ip), vehicle: carboxymethylcellulose (CMC) 104 % of control | dose: 300.0 mg/kg/injection, schedule: Q01DX001 (ip), vehicle: carboxymethylcellulose (CMC) 101 % of control

CCOC(=O)Cc1cnc(C)[nH]c1=O
inactive: [19] 95 % of control | [20] 101 % of control | [21] 96 % of control

CCOCCC(=O)NCc1ccccc1
inactive: [1] 100 % of control | [2] 104 % of control | [3] 106 % of control

COc1ccc(N=O)c(O)c1
inactive: [14] 104 % of control | [4] 93 % of control | [15] 103 % of control | [5] 97 % of control | [19] 106 % of control | [6] 104 % of control | [7] 101 % of control

COc1ccc(C(=S)N2CCN(c3ccc(C)cc3)CC2)cc1
inactive: [8] 98 % of control | [9] 95 % of control | [10] 95 % of control

CC(C)CP(=O)(CC(C)C)CC(C)C
inactive: dose: 6.25 mg/kg/injection, schedule: Q04DX003 (ip), vehicle: saline with Tween-80 98 % of control
